Measured values from patent publication US8722015B2, “Compositions and methods for treatment of angiogenesis-associated ocular disorders” (The Schepens Eye Research Institute, Inc., priority 2010, dated 2014).

Test system: pathological retinas
Test: Staining of pathological and healthy retinas with SH peptide, confocal images
Assay type: binding, rat
Procedure: FIG. 7 is a series of confocal images of pathological (row A) and healthy (row B) retinas stained with either SH peptide alone (left hand column), the SH peptide and IB4, which decorates endothelial cells and activated macrophages/microglia (middle column), or SH peptide, IB4 and DAPI (right hand column). Yellow indicates either endothelial cells or activated macrophages/microglia that are also stained with the SH peptide.
The following series of experiments are performed to assess if the unique peptide insert of the SH phage is sufficient for recognition of pathological retinal vessels. A peptide corresponding to the unique insert and the 4 flanking residues on the N and 2 residues on the C termini (GGACSTEALRHCG; SEQ ID NO: 3) is synthesized. To facilitate labeling of the peptide biotin is added on the N-terminus, thereby allowing for detection of the peptide with the fluorescently labeled avidin. The labeled SH peptide, along with the scrambled version is labeled and used to stain flat mounts of RA (experienced room air instead of the OIR protocol) or OIR retinas as was done in FIG. 4. The staining protocol is optimized to identify the suitable concentration of peptide, incubation and wash conditions. If the peptides used in these experiments include all of the necessary sequence information to selectively recognize the pathological retinal vessels, then the peptides work comparably to the phage, as shown in FIG. 4.
Peptides corresponding to those expressed on the surface of the SH phage, e.g., those with the amino acid sequence STEALRH (SEQ ID NO: 2), recognized pathological retinas much more effectively than healthy retinas.

STEALRH (Protein from peptide library) [SH peptide]
comparison with the entire SH phage (strength of the signal, absence of background) (FIG. 7): superior to the entire SH phage | staining of pathological versus healthy retinas (OIR versus healthy retinas, FIG. 7): stained pathological retinas much more robustly than healthy retinas | recognition of areas without overt pathology (pathological retina, in addition to tufts): recognized areas without overt pathology
